From patent US20050113371A1, “Antifungal agent for topical use” (priority 2002, published 2005)
Structures can show the parent of a compound that is named as a salt. Where two headings read alike, the source gives them in different places.

How the values were obtained:
[1] = in vivo; cited from earlier work
Candida albicans [2] = assay: Antifungal activity on Sabouraud agar medium, MIC and FIC index (Test Examples 1 and 2); format: cell-based; details: cultured 2 days
Experimental: (§1) Amorolfine hydrochloride and each specimen (hereinafter referred to as “medicine”) at a mass ratio of 1:1 were dissolved in dimethyl sulfoxide (DMSO). Two-fold dilution series were prepared with DMSO. In the determination of the antifungal activity, the medicine and the medium were mixed together at a ratio of 1:99.
(§2) Sabouraud agar medium (Eiken) was used as a susceptibility determination medium. A microbe suspension containing 10^6 spores/mL of Candida albicans or about 10^6 conidia/mL of ringworm fungus was prepared. 5 μl of the suspension was inoculated on the Sabouraud agar medium containing the medicine with a micro-planter (a product of Sakuma Seisakusho). Candida albicans was cultured for 2 days and the tinea was cultured for 7 days.
The effect obtained by the combination was judged on the basis of the following standards (FIC index): • >2: antagonism • 2>and 1<: additive action • 1>: potentiation
(1) Amorolfine hydrochloride and each specimen (hereinafter referred to as “medicine”) at a mass ratio of 100:1 to 1:100 were dissolved in dimethyl sulfoxide (DMSO). Two-fold dilution series were prepared with DMSO. In the determination of the antifungal activity, the medicine and the medium were mixed together at a ratio of 1:99.
(2) Amorolfine hydrochloride and each specimen (hereinafter referred to as “medicine”) at a mass ratio of 1:3 to 3:1 were dissolved in dimethyl sulfoxide (DMSO). Two-fold dilution series were prepared with DMSO. In the determination of the antifungal activity, the medicine and the medium were mixed together at a ratio of 1:99.
as §2, with “conidia/mL of each of two kinds of ringworm fungus” for “conidia/mL of ringworm fungus”, “agar medium with a” for “agar medium containing the medicine with a”, “and the Tinea fungus was cultured” for “and the tinea was cultured”

[3] = mice, cited from earlier work
[4] = rats, cited from earlier work
Trichophyton rubrum = assay: Antifungal activity on Sabouraud agar medium, MIC and FIC index (Test Examples 1 and 2); format: cell-based; details: cultured 7 days
Experimental: as §1
as §2, with “days. […]” for “days.”

[5] = test system: Trichophyton mentagrophytes; assay: as above; format: cell-based; details: cultured 7 days
Experimental: as §1
as §2, with “days. […]” for “days.”

[6] = rabbit, in vivo; cited from earlier work
[7] = test system: Trichophyton mentagrophytes TIMM 1189; assay: Tinea infection model of guinea pigs, culture test (Test Example 3); format: in vivo; details: 0.75 mass % in polyethylene glycol 400 (combination 1:2), 0.1 mL once a day for 5 days from 3 days after inoculation; culture on 5th day after last application; 10 loci
Experimental: Amorolfine hydrochloride and each specimen (hereinafter referred to as “medicine”) at a mass ratio of 1:2 were dissolved in polyethylene glycol 400 to obtain a final concentration of 0.75% mass ratio. Each of amorolfine hydrochloride and the medicines was separately dissolved in polyethylene glycol 400 to obtain solutions having the final concentration of 0.75 mass %.
Male Hartley guinea pigs (Japan SLC Co., Ltd.; 6 weeks) were used. In the course of the test, they were kept separately from one another in an isolator (Negative rack, CLEA JAPAN, Inc.). They could freely have a solid food (G standard, Nihon Nosan Kogyo KK) and water.
Trichophyton mentagrophytes TIMM 1189 was cultured on slant Sabouraud glucose agar medium at 27° C. for 14 days. Then, sterilized saline containing 0.05% of Tween 80 was added thereto to obtain conidia. The resultant suspension was filtered through a cell strainer (FALCON Co., Ltd.) to remove large mycelian masses. The number of conidia was counted with hemocytometer. The conidia were diluted to 4×10^7/mL with sterilized saline containing 0.05% of Tween 80 to obtain the conidial suspension for inoculation.
The back of each guinea pig was shaved. Then, a circular inoculation part having a diameter of 2 cm was positioned on both sides of the spinal column. A gummed tape was applied thereto and then peeled. These steps was repeated three times, whereby the hair was pulled out of the skin in both parts and, at the same time, the top of the corneous layer of the skin was peeled off. The remaining hair was completely removed with tweezers. […]
When at least one of the 10 small pieces taken from one inoculated locus of the skin was the positive after the culture, the inoculated locus was judged to be positive. The ratio of positive loci after culture was calculated from the number of the cultured positive pieces in the total 10 inoculated loci in each experiment group.
The number of the cultured positive small pieces in the inoculated portion was scored as will be described below to determine the infection. […]

[8] = male and female rabbits, percutaneous; cited from earlier work
[9] = test system: Trichophyton mentagrophytes; details: at a low concentration; cited from earlier work
Candida albicans [10] = details: cited from earlier work
[11] = Test Example 1, amorolfine hydrochloride + medicine at mass ratio 1:1

Compound: CN(C/C=C/C#CC(C)(C)C)Cc1cccc2ccccc12 [terbinafine hydrochloride, (E)-N-(6,6-dimethyl-2-hepten-4-ynyl)-N-methyl-1-naphthalenemethylamine hydrochloride]
- increase in the body weight of dams [1]: suppression on the increase in the body weight of dams
- influence on the reproduction and the growth of the embryos [1]: no influence was recognized
- MIC (Candida albicans [2]; Candida albicans, 48 h, Test Example 2, geometric mean MIC of two strains, read-out: Minimum inhibitory concentration (MIC)): > 8 µg/mL
- FIC index obtained by the combination of amorolfine hydrochloride with another medicine (Candida albicans [2]; [11]): 0.27
- Minimum inhibitory concentration (MIC) (Candida albicans [2]; Test Example 2, geometric mean MIC of two strains, listed as T, hydrochloride): >8.0 µg/mL
- LD50 ([3]; intravenous injection, female): 377 mg/kg
- LD50 ([3]; intravenous injection, male): 410 mg/kg
- LD50 ([3]; oral, female): > 4000 mg/kg
- LD50 ([3]; oral, male): 3570 mg/kg
- LD50 ([3]; subcutaneous, male and female): > 2000 mg/kg
- LD50 ([4]; intravenous injection, female): 206 mg/kg
- LD50 ([4]; intravenous injection, male): 220 mg/kg
- LD50 ([4]; oral, male and female): > 4000 mg/kg
- LD50 ([4]; percutaneous, male and female): > 2000 mg/kg
- LD50 ([4]; subcutaneous, male and female): > 2000 mg/kg
- FIC index obtained by the combination of amorolfine hydrochloride with another medicine (Trichophyton rubrum; [11]): 0.75
- MIC (Trichophyton rubrum; Trichophyton rubrum, 168 h, Test Example 2, geometric mean MIC of two strains, read-out: Minimum inhibitory concentration (MIC)): 0.004 µg/mL
- FIC index obtained by the combination of amorolfine hydrochloride with another medicine [5, 11]: 0.52
- MIC ([5]; Trichophyton mentagrophytes, 168 h, Test Example 2, geometric mean MIC of two strains, read-out: Minimum inhibitory concentration (MIC)): 0.011 µg/mL
- localized irritation [6]: a weak irritation or a light cumulative irritation
- rate of positive loci after culture [7]: 100%
- LD50 [8]: > 1500 mg/kg
- effect on germinated conidium of Trichophyton mentagrophytes [9]: fungicidal effect
- concentration that exhibits a fungistatic effect on the propagation of the yeast form (Candida albicans [10]): at least 1 μg/mL
- concentration that inhibits the conversion from yeast form to mycelial form (Candida albicans [10]): at least 0.098 μg/mL
